Data set [1] in a line: Stability of Δ9-THC in collection buffer compositions and at different pH. It is filed as physicochemical. The method, then:
(§1) Stability Studies: Shelf stability studies were conducted with Δ9-THC, Δ9-THC polymer nanospheres and formulations of the aforementioned. The following tests were performed: (i) physical appearance; and (ii) Δ9-THC content and integrity. Statistical analysis of the data sets were performed using SYSTAT®.
The composition of the buffer was determined from stability studies with Δ9-THC at different conditions. […] Stability experiments were also conducted with Δ9-THC at pH=4, 7 and 10. […] Experiments were also used to determine that a low concentration of PVA was adequate for […] and minimizing foaming in the collection buffer. The buffer was deareated to remove dissolved oxygen since Δ9-THC is very sensitive to oxygen. A 10% sucrose buffer was utilized based on prior experimental data for this and other projects to preserve particle integrity after lyophilization. Prior to lyophilization, these products were placed in a −80° C. freezer until they were frozen solid. Samples were then lyophilized for a 24 hour period. These samples were reconstituted in distilled, degasified water and were analyzed using HPLC and particle size analysis via dynamic light scattering. After lyophilization, particle sizes of THC-19 and THC-21 were reduced to 287 and 230 nm respectively, and the recovery efficiencies were 77% and 95% respectively.

Data set [2] in a line: 6-week stability of nanoencapsulated and naked Δ9-THC at 4, 25 and 40° C. The data set is classed as physicochemical. Particulars: 4° C., 25° C. and 40° C. The method, then: as §1
Stability studies were conducted on polymer nanoencapsulated Δ9-THC (THC-12-1) and naked Δ9-THC samples over a 6-week period at 4° C., 25° C. and 40° C.

For another data set, the system named is Fischer rats. The settings on record: cited from earlier work.

Read-outs that look alike come from different tables or passages of the source.

Results on 1 molecule are retold here after US8629177B2, “Nanoencapsulated delta-9-tetrahydrocannabinol” (Aphios Corporation, priority 2010, dated 2014).

Usually LD50 stands for the dose at which mortality reaches 50%.

Consider `CCCCCc1cc(O)c2c(c1)OC(C)(C)[C@@H]1CCC(C)=C[C@@H]21` [Δ9-THC, delta-9-tetrahydrocannabinol], for which, in data set [1] (pH 4, 7, 10 compared), the “stability at pH=4, 7 and 10” value is listed as “most stable at pH=4”. Further, the “stability in 10% sucrose/0.1% PVA solution with 40% ethanol” value in data set [1] (six day study, 40% ethanol) is “stable if 40% ethanol is introduced”. Further, the “stability in 10% sucrose/0.1% PVA solution” value in data set [1] (six day study, PVA-sucrose solution without sufficient ethanol (0%, 20%, 30%)) is on record as “degrades in the PVA-sucrose solution”. In data set [2] (6-week period), the degradation by temperature entry is on record as “degrades almost equally at each temperature”. Further, the “degradation after 6 weeks” value in data set [2] (after 6 weeks) is recorded as “most of the Δ9-THC is degraded”. Further, the LD50 with Fischer rats (females, orally, sesame oil vehicle) is 730 mg/kg; in the data set on Fischer rats (males, females, i.v.), 40 mg/kg; with Fischer rats (males, females, inhalation), 105.7 mg/kg; in the data set on Fischer rats (males, orally, sesame oil vehicle), 1,270 mg/kg; with Fischer rats (males, orally, sesame oil, 1% polysorbate 80, saline emulsion), 800 mg/kg. For the same molecule, the “LD50 corrected for particulate losses and pulmonary adsorption” value in the data set on Fischer rats (males, females, inhalation, corrected) is 42 mg/kg.
